Measurements published in article PMC4402707 (Neurotherapeutics : the journal of the American Society for …, 2009).
Read-outs that look alike come from different tables or passages of the source. Where a SMILES comes first, the peptide text is derived from it. [ ]: non-standard residue; d: D form. The star is where a group is joined. Fmoc = O=C(OCC1c2ccccc2-c2ccccc21)*; Cha = N[C@@H](CC1CCCCC1)C(=O)O; AMC = Cc1cc(=O)oc2cc(N*)ccc12

Tests used:
[1] = system: CF-1 mice (seizures induced by 6 Hz corneal stimulation); conditions: cited from earlier work; for ED50, 6 Hz model, 32 mA (95% confidence interval) / ED50, 6 Hz model, 44 mA (95% confidence interval): ref Barton et al., 2001[19]
[2] = system: galanin receptors GalR1 and GalR2; conditions: cited from earlier work; for Fold difference in affinity for GalR1 and GalR2: receptor subtype specificity
[3] = system: non-galanin receptors (5-HT-1A and 1B, D2 dopamine, ghrelin, melanocortin, NPY, μ-opioid receptors); conditions: at 10 μM, NPY (galnon only), μ-opioid (galmic only); cited from earlier work
[4] = system: corneal kindled mouse (fully expressed secondarily generalized seizure); conditions: i.p.; ref Rowley et al., manuscript in preparation; cited from earlier work
[5] = system: CF-1 mice (seizures induced by 6 Hz corneal stimulation); assay: 6 Hz psychomotor seizure test; type: in vivo, mouse; conditions: 4 mg/kg i.p.

## O=C1NC(=O)C(c2ccccc2)(c2ccccc2)N1 [Phenytoin, phenytoin]
[1]; i.p., 32 mA
  ED50, 6 Hz model, 32 mA (95% confidence interval): > 60 mg/kg
[1]; i.p.
  ED50, 6 Hz model, 44 mA (95% confidence interval): > 60 mg/kg

## CCC1(C)CC(=O)NC1=O (centres unmarked) [Ethosuximide, ethosuximide]
[1]; i.p.
  ED50, 6 Hz model, 44 mA (95% confidence interval): > 600 mg/kg

## Nc1nnc(-c2cccc(Cl)c2Cl)c(N)n1 [Lamotrigine, lamotrigine]
[1]; i.p., 32 mA
  ED50, 6 Hz model, 32 mA (95% confidence interval): > 60 mg/kg
[1]; i.p.
  ED50, 6 Hz model, 44 mA (95% confidence interval): > 60 mg/kg

## COC[C@@H](NC(C)=O)C(=O)NCc1ccccc1 [Lacosamide]
[1]; read-out: ED50, 6 Hz model, 32 mA (95% confidence interval), i.p., 32 mA, ref Stöhr et al., 2007[44]
  ED50: 9.9 mg/kg

## COC(=O)[C@H](CCCCN)NC(=O)[C@]1(C)NC(=O)c2nc(oc2C)[C@](C)(C(=O)NC2c3ccccc3-c3ccccc32)NC(=O)c2nc(oc2C)[C@](C)(C(=O)NCC2CCCCC2)NC(=O)c2nc1oc2C [galmic]
[2]
  Fold lower affinity for galanin receptors relative to the native peptide: 10,000-100,000 fold
  Fold difference in affinity for GalR1 and GalR2: 2-3 fold
[3]
  Interaction with non-galanin receptors: interact with a variety of non-galanin receptors

## NC(=O)N1c2ccccc2C=Cc2ccccc21 [CBZ, carbamazepine]
[4]
  Active dose in corneal kindled mouse model: 33 mg/kg

## GWTLNSAGYLLGPHAV-NH2 [Gal(1-16)]
[1]; 4 mg/kg i.p., 32 mA, ref Bulaj et al, 2008.[17]
  Activity in 6 Hz 32 mA model (in words): inactive

## Cc1cc(=O)oc2cc(NC(=O)[C@H](CCCCN)NC(=O)[C@H](CC3CCCCC3)NC(=O)OCC3c4ccccc4-c4ccccc43)ccc12 [galnon] (Fmoc-[Cha]-Lys-{AMC})
[2]
  Fold lower affinity for galanin receptors relative to the native peptide: 10,000-100,000 fold
  Fold difference in affinity for GalR1 and GalR2: 2-3 fold
[3]
  Interaction with non-galanin receptors: interact with a variety of non-galanin receptors

## Ac-YLLGPKK(Lys-P)K [NAX 5055 truncated]
[5]; 32 mA, tested across time
  Activity in 6 Hz 32 mA model (in words): inactive
[5]; 6 Hz 32 mA, CF-1 mice, 15 min, groups of four
  Mice protected from seizures / mice tested, 15′: 0/4
[5]; 6 Hz 32 mA, CF-1 mice, 30 min, groups of four
  Mice protected from seizures / mice tested, 30′: 0/4
[5]; 6 Hz 32 mA, CF-1 mice, 60 min, groups of four
  Mice protected from seizures / mice tested, 60′: 0/4
[5]; 6 Hz 32 mA, CF-1 mice, 120 min, groups of four
  Mice protected from seizures / mice tested, 120′: 0/4
[5]; 6 Hz 32 mA, CF-1 mice, 240 min, groups of four
  Mice protected from seizures / mice tested, 240′: 0/4
